Source: patent US3997662A, “Antibiotics and their preparation” (Rhone-Poulenc S.A., priority 1962, dated 1976)
Structures can show the parent of a compound that is named as a salt. Where two headings read alike, the source gives them in different places.

Columns and labels:
Solubility = type: physicochemical
Klebsiella pneumoniae = experiment: Activity by turbidimetric estimation against a 9865 RP control; type: cell-based; conditions: purified product; units per mg, Klebsiella pneumoniae growth inhibition
Text: The following non-limitative Examples illustrate the invention. […] This activity is expressed in units (u) per mg. for solid products and in units per cc. for solutions. (The unit is defined as the smallest quantity of product which, dissolved in 1 cc. of an appropriate medium, inhibits the growth of Klebsiella pneumoniae under the conditions in question.)

[1] = system: transplantable tumours in the mouse; experiment: Anti-cancer activity (general statement)
numerous bacteria = experiment: Bacteriostatic activity (general statement); type: cell-based; conditions: including antibiotic-resistant bacteria
Text: For each organism, the lowest concentration of substance has been determined which, under the defined conditions, prevents all visible development in an appropriate nutritive broth. The results of various determinations are shown in Table VI, wherein the minimal bacteriostatic concentrations are expressed as micrograms of substance per cubic centimeter of experimental medium.

| SMILES | solubility in chloroform (Solubility; chloroform) | solubility in water (Solubility) | activity (Klebsiella pneumoniae) | anti-cancer activity [1] | anti-cancer activity ([1]; listed as 13057 R.P.) | bacteriostatic activity (numerous bacteria) | solubility in benzene (Solubility; benzene) | solubility in diethyl ether (Solubility; diethyl ether) | solubility in ketones (Solubility; ketones) |
| --- | --- | --- | --- | --- | --- | --- | --- | --- | --- |
| COc1cccc2c1C(=O)c1c(O)c3c(c(O)c1C2=O)C[C@@](O)(C(C)=O)C[C@@H]3O[C@H]1C[C@H](N)[C@H](O)[C@H](C)O1 [13057 RP hydrochloride] | slightly soluble | soluble | – | – | – | – | – | – | – |
| COc1cccc2c1C(=O)c1c(O)c3c(c(O)c1C2=O)C[C@@](O)(C(C)=O)C[C@@H]3O[C@H]1C[C@H](N)[C@H](O)[C@H](C)O1 [13057 RP] | – | very slightly soluble | 160 μ/mg. | most interesting of the new antibiotics | very pronounced | exerted against numerous bacteria | particularly insoluble | particularly insoluble | very slightly soluble |
